One block for each compound: values may come before it. Active and inactive are the calls of the source. The rule behind the calls is not given here.
Columns and labels:
[1] = system: SGC-7901; assay: Antiproliferative activity against human SGC7901 cells after 72 hrs by MTT assay; format: functional, cell-based; settings: SGC-7901, 72 h
[2] = system: HeLa; assay: Antiproliferative activity against human HeLa cells after 72 hrs by MTT assay; format: functional, cell-based
[3] = Antiproliferative activity against human U87 cells after 72 hrs by MTT assay; format: functional, cell-based, U-87MG ATCC; settings: U-87 MG
[4] = Induction of NO production at 100 uM in presence of 5.0 mM L-cysteine incubated for 120 mins measured every 15 mins by Griess assay
[5] = species on record: Homo sapiens; assay: Inhibition of PI3K/Akt activation in human U87 cells assessed as decrease in Bcl-2 protein expression after 72 hrs by Western blot method; format: cell-based
[6] = system: L02; assay: Cytotoxicity against human LO2 cells assessed as reduction in cell viability after 72 hrs by MTT assay; format: cell-based; settings: L02, 72 h
[7] = system: U-87MG ATCC; assay: Antiproliferative activity against human U87 cells after 72 hrs in presence of NO scavenger hemoglobin/PTIO by MTT assay; format: functional, cell-based
[8] = Cell cycle arrest in human U87 cells assessed as accumulation at G1 phase at 0.5 nM after 72 hrs by propidium iodide staining based flow cytometry (reference value: 54.11%); format: functional, U-87MG ATCC
[9] = Cell cycle arrest in human U87 cells assessed as accumulation at G1 phase at 1 nM after 72 hrs by propidium iodide staining based flow cytometry (reference value: 54.11%); format: functional, U-87MG ATCC
[10] = Cell cycle arrest in human U87 cells assessed as accumulation at G1 phase at 2 nM after 72 hrs by propidium iodide staining based flow cytometry (reference value: 54.11%); format: functional, U-87MG ATCC
[11] = Cell cycle arrest in human U87 cells assessed as accumulation at G2 phase at 0.5 nM after 72 hrs by propidium iodide staining based flow cytometry (reference value: 18.86%); format: functional, U-87MG ATCC
[12] = Cell cycle arrest in human U87 cells assessed as accumulation at G2 phase at 1 nM after 72 hrs by propidium iodide staining based flow cytometry (reference value: 18.86%); format: functional, U-87MG ATCC
[13] = Cell cycle arrest in human U87 cells assessed as accumulation at G2 phase at 2 nM after 72 hrs by propidium iodide staining based flow cytometry (reference value: 18.86%); format: functional, U-87MG ATCC
[14] = Cell cycle arrest in human U87 cells assessed as accumulation at S phase at 0.5 nM after 72 hrs by propidium iodide staining based flow cytometry (reference value: 27.03%); format: functional, U-87MG ATCC
[15] = Cell cycle arrest in human U87 cells assessed as accumulation at S phase at 1 nM after 72 hrs by propidium iodide staining based flow cytometry (reference value: 27.03%); format: functional, U-87MG ATCC
[16] = Cell cycle arrest in human U87 cells assessed as accumulation at S phase at 2 nM after 72 hrs by propidium iodide staining based flow cytometry (reference value: 27.03%); format: functional, U-87MG ATCC
[17] = Induction of apoptosis in human U87 cells assessed as viable cells at 0.5 nM measured after 72 hrs by Annexin V-APC/7-AAD staining based flow cytometry (reference value: 92.71%); format: functional, U-87MG ATCC; settings: U-87 MG, read-out: Activity
[18] = Induction of apoptosis in human U87 cells assessed as viable cells at 1 nM measured after 72 hrs by Annexin V-APC/7-AAD staining based flow cytometry (reference value: 92.71%); format: functional, U-87MG ATCC; settings: U-87 MG, read-out: Activity
[19] = Induction of apoptosis in human U87 cells assessed as viable cells at 2 nM measured after 72 hrs by Annexin V-APC/7-AAD staining based flow cytometry (reference value: 92.71%); format: functional, U-87MG ATCC; settings: U-87 MG, read-out: Activity
[20] = Induction of apoptosis in human U87 cells assessed as early apoptotic cells at 0.5 nM measured after 72 hrs by Annexin V-APC/7-AAD staining based flow cytometry (reference value: 3.82%); format: functional, U-87MG ATCC
[21] = Induction of apoptosis in human U87 cells assessed as early apoptotic cells at 1 nM measured after 72 hrs by Annexin V-APC/7-AAD staining based flow cytometry (reference value: 3.82%); format: functional, U-87MG ATCC
[22] = Induction of apoptosis in human U87 cells assessed as early apoptotic cells at 2 nM measured after 72 hrs by Annexin V-APC/7-AAD staining based flow cytometry (reference value: 3.82%); format: functional, U-87MG ATCC
[23] = Induction of apoptosis in human U87 cells assessed as late apoptotic cells at 0.5 nM measured after 72 hrs by Annexin V-APC/7-AAD staining based flow cytometry (reference value: 3.02%); format: functional, U-87MG ATCC
[24] = Induction of apoptosis in human U87 cells assessed as late apoptotic cells at 1 nM measured after 72 hrs by Annexin V-APC/7-AAD staining based flow cytometry (reference value: 3.02%); format: functional, U-87MG ATCC
[25] = Induction of apoptosis in human U87 cells assessed as late apoptotic cells at 2 nM measured after 72 hrs by Annexin V-APC/7-AAD staining based flow cytometry (reference value: 3.02%); format: functional, U-87MG ATCC
[26] = Induction of apoptosis in human U87 cells assessed as necrotic cells at 0.5 nM measured after 72 hrs by Annexin V-APC/7-AAD staining based flow cytometry (reference value: 0.44%); format: functional, U-87MG ATCC
[27] = Induction of apoptosis in human U87 cells assessed as necrotic cells at 1 nM measured after 72 hrs by Annexin V-APC/7-AAD staining based flow cytometry (reference value: 0.44%); format: functional, U-87MG ATCC
[28] = Induction of apoptosis in human U87 cells assessed as necrotic cells at 2 nM measured after 72 hrs by Annexin V-APC/7-AAD staining based flow cytometry (reference value: 0.44%); format: functional, U-87MG ATCC
[29] = species on record: Homo sapiens; assay: Inhibition of PI3K/Akt activation in human U87 cells assessed as increase in pro-apoptotic Bax protein expression after 72 hrs by Western blot method; format: cell-based
[30] = species on record: Homo sapiens; assay: Inhibition of PI3K/Akt activation in human U87 cells assessed as increase in caspase-3 level after 72 hrs by Western blot method; format: cell-based
[31] = target: RAC-alpha serine/threonine-protein kinase (Homo sapiens) (UniProt P31749); assay: Inhibition of Akt phosphorylation in human U87 cells after 72 hrs by Western blot method; format: cell-based
Sequence of RAC-alpha serine/threonine-protein kinase (Homo sapiens) (P31749 whole entry): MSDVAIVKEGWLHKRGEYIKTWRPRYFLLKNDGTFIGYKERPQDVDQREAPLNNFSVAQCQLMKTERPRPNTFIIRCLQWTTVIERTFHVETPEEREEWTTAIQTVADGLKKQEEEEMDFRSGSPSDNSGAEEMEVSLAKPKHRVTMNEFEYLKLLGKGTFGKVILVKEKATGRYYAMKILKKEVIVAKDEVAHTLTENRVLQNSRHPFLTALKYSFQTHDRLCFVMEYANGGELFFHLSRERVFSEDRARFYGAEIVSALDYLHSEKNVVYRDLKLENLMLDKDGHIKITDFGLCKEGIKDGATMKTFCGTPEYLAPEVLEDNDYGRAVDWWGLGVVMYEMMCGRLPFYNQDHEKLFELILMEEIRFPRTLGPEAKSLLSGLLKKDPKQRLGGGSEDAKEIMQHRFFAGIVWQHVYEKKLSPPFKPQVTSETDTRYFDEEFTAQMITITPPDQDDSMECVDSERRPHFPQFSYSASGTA

[32] = system: H22; assay: Antitumor activity against […] cells xenografted in ICR mouse assessed as tumor growth inhibition at 30 mg/kg, iv qd for 3 weeks relative to control; format: functional; settings: 504 h, read-out: TGI
[33] = system: H22; assay: Antitumor activity against […] cells xenografted in ICR mouse assessed as tumor growth inhibition at 60 mg/kg, iv qd for 3 weeks relative to control; format: functional; settings: 504 h, read-out: TGI
[34] = system: H22; assay: Antitumor activity against […] cells xenografted in iv dosed ICR mouse assessed as tumor growth inhibition administered qd for 3 weeks; format: functional, organism-based
[35] = system: Mus musculus; assay: Toxicity in ICR mouse xenografted with […] cells assessed as body weight at 60 mg/kg, iv administered qd for 3 weeks (reference value: 22.9 +/- 0.4 g); format: organism-based; settings: in vivo, 504 h
[36] = system: Mus musculus; assay: Toxicity in ICR mouse xenografted with […] cells assessed as body weight at 30 mg/kg, iv administered qd for 3 weeks (reference value: 22.9 +/- 0.4 g); format: organism-based; settings: in vivo, 504 h

IC50 [1]: 27.8 µM
IC50 [2]: 21.9 µM
Compound: C=C[C@]1(C)CC[C@@H](C(=C)COC(=O)c2ccccc2C(=O)OCCCCOc2no[n+]([O-])c2S(=O)(=O)c2ccccc2)C[C@H]1C(=C)C
IC50 [3]: 0.081 µM
Activity [4]: inactive

IC50 [1]: 15.3 µM
IC50 [2]: 10.2 µM
Compound: C=C[C@]1(C)CC[C@@H](C(=C)COC(=O)CNC(=O)CCC(=O)OCCCCOc2no[n+]([O-])c2S(=O)(=O)c2ccccc2)C[C@H]1C(=C)C
IC50 [3]: 0.173 µM

IC50 [1]: 2.92 µM
IC50 [2]: 3.64 µM
Compound: C=C[C@]1(C)CC[C@@H](C(=C)COC(=O)[C@@H](N)CC(=O)OCCCCOc2no[n+]([O-])c2S(=O)(=O)c2ccccc2)C[C@H]1C(=C)C
IC50 [3]: 0.124 µM
Activity [4]: Active

IC50 [1]: 9.49 µM
IC50 [2]: 11.2 µM
Compound: C=C[C@]1(C)CC[C@@H](C(=C)COC(=O)[C@@H]2CCCN2C(=O)CCC(=O)OCCCCOc2no[n+]([O-])c2S(=O)(=O)c2ccccc2)C[C@H]1C(=C)C
IC50 [3]: 0.055 µM

IC50 [1]: 3.66 µM
IC50 [2]: 4.25 µM
Compound: C=C[C@]1(C)CC[C@@H](C(=C)COC(=O)[C@@H](NC(=O)CCC(=O)OCCCCOc2no[n+]([O-])c2S(=O)(=O)c2ccccc2)[C@@H](C)CC)C[C@H]1C(=C)C
IC50 [3]: 0.01 µM
Activity [4]: Active

IC50 [1]: 9.97 µM
IC50 [2]: 10.8 µM
Compound: C=C[C@]1(C)CC[C@@H](C(=C)COC(=O)[C@H](Cc2ccccc2)NC(=O)CCC(=O)OCCCCOc2no[n+]([O-])c2S(=O)(=O)c2ccccc2)C[C@H]1C(=C)C
IC50 [3]: 0.061 µM

IC50 [1]: 4.66 µM
IC50 [2]: 5.78 µM
Compound: C=C[C@]1(C)CC[C@@H](C(=C)COC(=O)CCC(=O)OCCOCCOc2no[n+]([O-])c2S(=O)(=O)c2ccccc2)C[C@H]1C(=C)C
IC50 [3]: 0.024 µM

Compound: O=C(O)CCC(=O)OCCOc1c(S(=O)(=O)c2ccccc2)no[n+]1[O-]
IC50 [3]: 32.2 µM

IC50 [1]: 7.78 µM
IC50 [2]: 8.86 µM
Compound: C=C[C@]1(C)CC[C@@H](C(=C)COC(=O)CCNC(=O)CCC(=O)OCCCCOc2no[n+]([O-])c2S(=O)(=O)c2ccccc2)C[C@H]1C(=C)C
IC50 [3]: 0.058 µM

IC50 [1]: 22.9 µM
IC50 [2]: 23.2 µM
Compound: C=C[C@]1(C)CC[C@@H](C(=C)COC(=O)CCC(=O)OCCCCCCOc2no[n+]([O-])c2S(=O)(=O)c2ccccc2)C[C@H]1C(=C)C
IC50 [3]: 0.154 µM
Activity [4]: inactive

Compound: C=C[C@]1(C)CC[C@@H](C(=C)CO)C[C@H]1C(=C)C
IC50 [3]: 198 µM

IC50 [1]: 3.18 µM
IC50 [2]: 4.94 µM
inhibition [31]: Dose-dependent effect
Compound: C=C[C@]1(C)CC[C@@H](C(=C)COC(=O)CCC(=O)OCCOc2no[n+]([O-])c2S(=O)(=O)c2ccccc2)C[C@H]1C(=C)C
inhibition [5]: Dose-dependent effect
IC50 [3]: 0.002 µM
IC50 [6]: 30.4 µM
Activity [4]: Active
Activity [7]: Dose-dependent effect
Activity [8]: 50.4%
Activity [9]: 34.97%
Activity [10]: 26.96%
Activity [11]: 22.91%
Activity [12]: 33.35%
Activity [13]: 47.99%
Activity [14]: 26.69%
Activity [15]: 31.68%
Activity [16]: 25.04%
viability at 0.0005 µM [17]: 80.4%
viability at 0.001 µM [18]: 64.9%
viability at 0.002 µM [19]: 46%
Activity [20]: 8.16%
Activity [21]: 25.03%
Activity [22]: 34.63%
Activity [23]: 10.16%
Activity [24]: 9.91%
Activity [25]: 19.07%
Activity [26]: 1.25%
Activity [27]: 0.19%
Activity [28]: 0.25%
inhibition [29]: Dose-dependent effect
inhibition [30]: Dose-dependent effect
inhibition in vivo at 30 mg/kg [32]: 50.2%
inhibition in vivo at 60 mg/kg [33]: 64.8%
TGI [34]: Dose-dependent effect
Activity [35]: 20.9 g
Activity [36]: 21.6 g

IC50 [1]: 11.8 µM
IC50 [2]: 10.9 µM
Compound: C=C[C@]1(C)CC[C@@H](C(=C)COC(=O)[C@H](C)NC(=O)CCC(=O)OCCCCOc2no[n+]([O-])c2S(=O)(=O)c2ccccc2)C[C@H]1C(=C)C
IC50 [3]: 0.114 µM

IC50 [1]: 8.76 µM
IC50 [2]: 10.9 µM
Compound: C=C[C@]1(C)CC[C@@H](C(=C)COC(=O)CCC(=O)OCCCCOc2no[n+]([O-])c2S(=O)(=O)c2ccccc2)C[C@H]1C(=C)C
IC50 [3]: 0.007 µM

IC50 [1]: 4.97 µM
IC50 [2]: 3.78 µM
Compound: C=C[C@]1(C)CC[C@@H](C(=C)COC(=O)CCC(=O)OCC#CCOc2no[n+]([O-])c2S(=O)(=O)c2ccccc2)C[C@H]1C(=C)C
IC50 [3]: 0.085 µM

IC50 [1]: 236 µM
IC50 [2]: 214 µM
Compound: C=C[C@]1(C)CC[C@@H](C(=C)C)C[C@H]1C(=C)C
IC50 [3]: 180 µM
inhibition in vivo at 60 mg/kg [33]: 49.6%
Activity [35]: 20 g

Source: ChEMBL document CHEMBL4052635, “Discovery of novel antitumor nitric oxide-donating β-elemene hybrids through inhibiting the PI3K/Akt pathway” (Eur J Med Chem, 2017)
